Here are results for nine compounds from patent US10888550B2, “Pyrazole derivatives as MALT1 inhibitors” (Janssen Pharmaceutica NV, priority 2018, dated 2021).

In test [1] the test system is IL6 secretion, OCI-LY3 cells. The experiment in a line: Human IL6 Mesoscale assay (OCI-LY3). Type of test: cell-based. The note with it: 24 h incubation.
The subject of test [2] is IL10 secretion, OCI-LY3 cells. The experiment in a line: Human IL10 Mesoscale assay (OCI-LY3). Type of test: cell-based. The note with it: 24 h incubation.
Test [3] addresses full-length MALT1 protein (Strep-MALT1(1-824)-His) (Homo sapiens (Human), UniProt Q9UDY8). The experiment in a line: MALT1 Biochemical Protease Assay. The note with it: read-out: MALT1_Biochemical activity (Ac-LRSR-amc) IC50; 10 nM FL MALT1, 200 μM Ac-LRSR-AMC, 50 min pre-incubation, 4 h at RT. The text has this:
From this an ICso value (inhibitory concentration causing 50% inhibition) can be obtained.

Chain of full-length MALT1 protein (Strep-MALT1(1-824)-His) (Q9UDY8 whole entry): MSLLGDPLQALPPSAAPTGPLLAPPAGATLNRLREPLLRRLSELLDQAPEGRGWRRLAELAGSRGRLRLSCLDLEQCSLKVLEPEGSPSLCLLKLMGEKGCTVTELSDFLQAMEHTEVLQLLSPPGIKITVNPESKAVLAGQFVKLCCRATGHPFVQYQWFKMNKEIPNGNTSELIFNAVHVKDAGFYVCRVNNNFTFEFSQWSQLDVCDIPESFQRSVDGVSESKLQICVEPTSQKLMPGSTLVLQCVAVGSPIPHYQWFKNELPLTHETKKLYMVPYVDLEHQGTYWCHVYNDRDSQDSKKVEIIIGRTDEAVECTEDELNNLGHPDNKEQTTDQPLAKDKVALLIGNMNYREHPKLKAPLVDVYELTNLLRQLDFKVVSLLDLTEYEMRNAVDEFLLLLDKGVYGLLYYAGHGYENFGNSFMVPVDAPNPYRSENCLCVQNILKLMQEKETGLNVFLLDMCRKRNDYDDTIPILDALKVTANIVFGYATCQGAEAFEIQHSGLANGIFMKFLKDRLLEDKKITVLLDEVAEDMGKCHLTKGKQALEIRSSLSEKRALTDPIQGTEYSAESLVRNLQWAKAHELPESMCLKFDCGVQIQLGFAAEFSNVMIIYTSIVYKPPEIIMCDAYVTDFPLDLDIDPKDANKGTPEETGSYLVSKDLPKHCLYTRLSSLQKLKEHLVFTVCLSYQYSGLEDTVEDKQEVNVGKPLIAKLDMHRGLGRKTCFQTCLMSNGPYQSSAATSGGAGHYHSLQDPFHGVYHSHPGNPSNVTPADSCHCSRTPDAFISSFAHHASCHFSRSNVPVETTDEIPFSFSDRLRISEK

With `Cc1ccc(-n2ncc(C(=O)Nc3cnc(-n4nccn4)c(Cl)c3)c2C(F)(F)F)n2ccnc12` [Cpd 7, N-(5-chloro-6-(2H-1,2,3-triazol-2-yl)pyridin-3-yl)-1-(8-methylimidazo[1,2-a]pyridin-5-yl)-5-(trifluoromethyl)-1H-pyrazole-4-carboxamide], the IC50 (in general, the concentration at which inhibition is half-maximal) is 0.219 µM in test [1], 0.065 µM in test [2] and 0.12 µM in test [3].

With `Cc1cnc(-c2ncc(NC(=O)c3cnn(-c4ccc(F)c5nccn45)c3C(F)(F)F)cc2Cl)o1` [Cpd 9, N-(5-chloro-6-(5-methyloxazol-2-yl)pyridin-3-yl)-1-(8-fluoroimidazo[1,2-a]pyridin-5-yl)-5-(trifluoromethyl)-1H-pyrazole-4-carboxamide], the figures for the IC50 in test [1], in test [2] and in test [3] were 0.24 µM, 0.129 µM and 0.081 µM, respectively.

With `Cc1coc(-c2ncc(NC(=O)c3cnn(-c4ccc(F)c5nccn45)c3C(F)(F)F)cc2Cl)n1` [Cpd 10, N-(5-chloro-6-(4-methyloxazol-2-yl)pyridin-3-yl)-1-(8-fluoroimidazo[1,2-a]pyridin-5-yl)-5-(trifluoromethyl)-1H-pyrazole-4-carboxamide], the half-inhibitory concentration (IC50) was 0.123 µM in test [1], 0.023 µM in test [2] and 0.026 µM in test [3].

On to `N#Cc1ccc(-n2ncc(C(=O)Nc3ccnc(C(F)(F)F)c3)c2C(F)(F)F)c2ccnn12` [Cpd 11, 1-(7-cyanopyrazolo[1,5-a]pyridin-4-yl)-5-(trifluoromethyl)-N-(2-(trifluoromethyl)pyridin-4-yl)-1H-pyrazole-4-carboxamide], for which the IC50 in test [1] amounted to 0.138 µM; in test [2] it was 0.065 µM; in test [3] it was 0.089 µM.

Regarding `NC(=O)c1ccc(-n2ncc(C(=O)Nc3ccnc(C(F)(F)F)c3)c2C(F)(F)F)c2ccnn12` [Cpd 12, 4-(5-(trifluoromethyl)-4-((2-(trifluoromethyl)pyridin-4-yl)carbamoyl)-1H-pyrazol-1-yl)pyrazolo[1,5-a]pyridine-7-carboxamide], the IC50 came out at 0.288 µM in test [1], 0.155 µM in test [2] and 0.219 µM in test [3].

As to `N#Cc1ccc(-n2ncc(C(=O)Nc3cnc(-n4nccn4)c(Cl)c3)c2C(F)(F)F)c2ccnn12` [Cpd 13, N-(5-chloro-6-(2H-1,2,3-triazol-2-yl)pyridin-3-yl)-1-(7-cyanopyrazolo[1,5-a]pyridin-4-yl)-5-(trifluoromethyl)-1H-pyrazole-4-carboxamide], the figures for the concentration for half-maximal inhibition (IC50) in test [1], in test [2] and in test [3] were 0.022 µM, 0.019 µM and 0.019 µM, respectively.

Regarding `O=C(Nc1ccnc(C(F)(F)F)c1)c1cnn(-c2ccc(Cl)n3nccc23)c1C(F)(F)F` [Cpd 14, 1-(7-chloropyrazolo[1,5-a]pyridin-4-yl)-5-(trifluoromethyl)-N-(2-(trifluoromethyl)pyridin-4-yl)-1H-pyrazole-4-carboxamide], the results for the IC50 in test [1], in test [2] and in test [3] were 0.115 µM, 0.501 µM and 0.209 µM, respectively.

As for `O=C(Nc1cnc(-n2nccn2)c(Cl)c1)c1cnn(-c2ccc(Cl)n3nccc23)c1C(F)(F)F` [Cpd 15, N-(5-chloro-6-(2H-1,2,3-triazol-2-yl)pyridin-3-yl)-1-(7-chloropyrazolo[1,5-a]pyridin-4-yl)-5-(trifluoromethyl)-1H-pyrazole-4-carboxamide], the IC50 was found to be 0.047 µM in test [1], 0.031 µM in test [2] and 0.033 µM in test [3].

As to `NC(=O)c1ccc(-n2ncc(C(=O)Nc3cnc(-n4nccn4)c(Cl)c3)c2C(F)(F)F)c2ccnn12` [Cpd 16, 4-(4-((5-chloro-6-(2H-1,2,3-triazol-2-yl)pyridin-3-yl)carbamoyl)-5-(trifluoromethyl)-1H-pyrazol-1-yl)pyrazolo[1,5-a]pyridine-7-carboxamide], the IC50 came to 0.042 µM in test [1], 0.041 µM in test [2] and 0.025 µM in test [3].
